“Also recorded” adds a separate entry of the source. Where a name gives a salt, the structure may show the parent alone.
Columns and labels:
[1] = test system: SARS-CoV-2_S (D614G)-pseudotyped lentivirus entry into ACE2-overexpressing Capan2 cells; type: cell-based
[2] = test system: SARS-CoV-2_S (D614G)-pseudotyped lentivirus entry into ACE2-overexpressing 293T cells; type: cell-based

SMILES | inhibiting effect on entry of the pseudovirus (EGFP/mCherry signal ratio) [1] | inhibiting effect on entry of the pseudovirus (EGFP/mCherry signal ratio) [2] | inhibiting effect on entry of the pseudovirus [1]
N=C(N)c1ccc2cc(OC(=O)c3ccc(N=C(N)N)cc3)ccc2c1 [Nafamostat mesylate, reference compound] | exhibited an inhibiting effect; also recorded: block the pseudoviruses from entering | significant inhibiting effects | –
COc1ccc2c3ccnc4ccc(=O)n(c2c1)c43 [TS-984, 9-Methoxycanthin-6-one] | strongest and was dose-dependent; also recorded: greatly reduce the EGFP/mCherry signal ratio; also recorded: effectively block the entry of pseudovirus into Capan2 cells with ACE2 overexpression in a dose-dependent manner | significant inhibiting effects; also recorded: greatly reduce the EGFP/mCherry signal ratio | –
O=C1c2ccccc2C(=O)c2ccccc21 [TS-1276, anthraquinone] | did not present any significant inhibiting effects | significant inhibiting effects | –
O=C(OC[C@H]1O[C@@H](OC(=O)c2cc(O)c(O)c(OC(=O)c3cc(O)c(O)c(O)c3)c2)[C@H](OC(=O)c2cc(O)c(O)c(OC(=O)c3cc(O)c(O)c(O)c3)c2)[C@@H](OC(=O)c2cc(O)c(O)c(OC(=O)c3cc(O)c(O)c(O)c3)c2)[C@@H]1OC(=O)c1cc(O)c(O)c(OC(=O)c2cc(O)c(O)c(O)c2)c1)c1cc(O)c(O)c(OC(=O)c2cc(O)c(O)c(O)c2)c1 [tannic acid, reference compound] | – | – | only a mild inhibiting effect; also recorded: did not observe any significant inhibiting effect
